The values below are quoted from earlier work in US20140080864A1, “PHARMACETUICAL COMPOSITION COMPRISING DROTAVERINE” (CHINOIN PRIVATE CO LTD, priority 2011, published 2014).

The structures appear in SMILES notation. Where a name gives a salt, the structure may show the parent alone.

For this data set the following is noted: oral dose, healthy individuals; mean SD.

With `CCOc1ccc(/C=C2\NCCc3cc(OCC)c(OCC)cc32)cc1OCC` [drotaverine hydrochloride, 1-(3,4-diethoxybenzylidene)-6,7-diethoxy-1,2,3,4-tetrahydroisoquinoine], the “absolute bioavailability (mean)” value is recorded as 58.2%.
